The term pIC50 denotes the negative decadic logarithm of the IC50, by convention in mol/L. Low readings indicate a high IC50, high ones a low IC50.

This is an account of results in patent publication US9981950B2, “Triazoles as NR2B receptor inhibitors” (Janssen Pharmaceuticals, Inc., priority 2014, dated 2018).

pIC50: −log10 of the molar value.

Assay [1] addresses T1, rat NR1/NR2B receptor (Rattus norvegicus (Rat), UniProt P35439+Q00960). Briefly: RRNR2BB: inhibition of specific binding to the rat NR1/NR2B receptor. The following applies: [3H]-Ifenprodil binding, rat brain membranes, Hill-plot 2-parameter-model. As for the experimental part:
RRNR2BB—Inhibition of Specific Binding to the Rat NR1/NR2B Receptor
(§1) Male Wistar rats (180 to 200 g) were killed by suffocation in a CO2 chamber for two minutes. Whole brains without cerebellum were removed and dissected on ice, placed into closed vials and stored at −70° C.
Membrane fractions were prepared and tested using standard techniques. At the time of the assay, 1 g of the brains were placed into 25 ml of 50 mM Tris/10 mM EDTA buffer, pH=7.1, (25 vol. per g of original tissue) and was homogenized for 30 sec at 20000 U/min with an Ultraturrax T25 (Jahnke & Kunkel, IKA-Labortechnik, Staufen, Germany). The homogenate was centrifuged at 4° C. for 10 min at 48000 g (OPTIMA L-70, Beckman, Palo Alto, Calif. 94304, USA). The supernatant was discarded and the pellet was homogenized on ice for 30 sec at 20000 U/min with an Ultraturrax and again centrifuged at 48000 g for 30 minutes at 4° C. The resultant pellet was resuspended in 25 ml of 50 mM Tris/10 mM EDTA buffer, homogenized for 30 sec with an Ultraturrax, aliquoted, frozen at −70° C. and stored until use
After thawing on the day of the assay, a 5 ml membrane aliquote was centrifuged at 48000 g for 30 min at 4° C. The pellet was resuspended in 5 ml of 5 mM Tris/1 mM EDTA buffer, pH=7.4, homogenized for 30 sec at 20000 U/min with an Ultraturrax and centrifuged at 48000 g for 30 min at 4° C. This step was repeated twice. The final pellet was homogenized in 5 ml of 5 mM Tris/mM EDTA buffer at 4° C. with an Ultraturrax and used for the Ifenprodil-binding assay.
Nonspecific binding was estimated in the presence of 10 M CP101.606. The samples were incubated for 60 min. at 4° C.
Binding was terminated by filtration of the incubated membrane preparations using Filtermat B (Pharmacia, Uppsala Sweden) and a Micro Cell Harvester (Skatron, Lier, Norway). The Filtermat B had been presoaked with 1% polyethylenimine and carefully washed with […] Tris/HCl-buffer pH=7.7 after the filtration to separate free and bound radioactivity.
For pipetting of the incubation mixture the robot Biomek2000 (Fa. Beckman) was used.
The IC50 values in the tables below were determined using the Hill-plot, 2-parameter-model.

Assay [2] addresses T1, rat NR1/NR2B receptor. As to the kind of experiment: NR2B binding assay: inhibition of specific [3H]-Ifenprodil binding to the rat NR1/NR2B receptor. The note with it: rat brain membranes, Hill-plot 2-parameter-model. As to the method:
Inhibition of Specific Binding to the Rat NR1/NR2B Receptor
as §1
Membrane fractions were prepared and tested using standard techniques. At the time of the assay, 1 g of the brains was placed into 25 ml of 50 mM Tris/10 mM EDTA buffer, pH 7.1, (25 vol. per g of original tissue) and homogenized for 30 sec at 20000 rpm with an Ultraturrax T25 (Jahnke & Kunkel, IKA-Labortechnik, Staufen, Germany). The homogenate was centrifuged at 4° C. for 10 min at 48000 g (OPTIMA L-70, Beckman, Palo Alto, Calif. 94304, USA).
The supernatant was discarded and the pellet was homogenized on ice for 30 sec at 20000 rpm with an Ultraturrax and again centrifuged at 48000 g for 30 minutes at 4° C. The resulted pellet was resuspended in 25 ml of 50 mM Tris/10 mM EDTA buffer, homogenized for 30 sec with an Ultraturrax, aliquoted, frozen at −70° C. and stored until use.
After thawing on the day of the assay, a 5 ml membrane aliquot was centrifuged at 48000 g for 30 min at 4° C. The pellet was resuspended in 5 ml of 5 mM Tris/1 mM EDTA buffer, pH 7.4, homogenized for 30 sec at 20000 rpm with an Ultraturrax and centrifuged at 48000 g for 30 min at 4° C. This was repeated twice. The final pellet was homogenized in 5 ml of 5 mM Tris/l mM EDTA buffer at 4° C. with an Ultraturrax and used for the Ifenprodil-binding assay as described in the following.
Nonspecific binding was estimated in the presence of […] CP101.606. The samples were incubated for 60 min. at 4° C.
The incubation was terminated by filtration of the membrane preparations using Filtermat B (Pharmacia, Uppsala Sweden) and a Micro Cell Harvester (Skatron, Lier, Norway). The Filtermat B had been presoaked with 1% polyethylene imine and carefully washed with 50 mM Tris/HCl-buffer pH 7.7 after the filtration to separate free and bound radioactivity.
The optimal amount of membrane preparation in the assay had been determined and optimized for each membrane preparation separately before the test.
For pipetting of the incubation mixture we routinely used the robot Biomek2000 (Fa. Beckman).
For determination of IC50 values the Hill-plot, 2-parameter-model was used.

A further assay addresses hERG-receptor (Homo sapiens (Human), UniProt Q12809). As to the kind of experiment: HERGBD: inhibition of specific 3H-Dofetilide binding to the hERG-receptor. The note with it: HEK cell membranes with human ERG, Hill-plot 2-parameter-model. As for the experimental part: Inhibition of Specific Binding to the hERG-Receptor (HERGBD)
A HEK cell line with stable transfected human ERG receptor was used for the assay. The cells were grown adherently and maintained in DULBECCOS' MEM medium with 10% FBS, 1% non-essential amino acids, 1% Penicillin/Streptomycin and 400 μg/ml G418 (Calbiochem).
For binding assays and membrane preparations the cell culture medium was removed, cells were washed with PBS. Crude membranes for radioligand binding experiments were prepared by scraping the cells off the dishes in ice cold 20 mM HEPES/0.1 mM KCl/pH 7.2. The cell suspension was homogenized on ice (Ultra turrax, 3×20 sec.) and the homogenate was spun for 10 min (1° C., 1000 g, OPTIMA, SW28, 2800 U/min). The supernatant was than centrifuged for 40 min at 100000 g (1° C., OPTIMA, SW28, 23000 U/min). The membrane pellet was resuspended in 20 mM HEPES/0.1 mM KCl/pH 7.2, frozen and stored at −80° C.
After thawing on the day of the assay, the membrane suspension was diluted further with 20 mM HEPES/0.1 mM KCl/pH 7.2.
The incubation mixture of 200 μl contained 1.5 nmol/l 3H-Dofetilide, optimized amount of membrane preparation, 20 mM HEPES/0.1 mM KCl/(pH 7.2) and inhibitor in 1% DMSO. Nonspecific binding was estimated in the presence of […] Dofetilide. The samples were incubated for 90 min. at RT.
Binding was terminated by filtration of the incubated membrane preparations using Filtermat B (Pharmacia, Uppsala Sweden) and a Micro Cell Harvester (Skatron, Lier, Norway). The Filtermat B had been presoaked with 1% polyethylenimine and carefully washed with 0.05 M Tris/HCl-buffer pH=7.7 after the filtration to separate free and bound radioactivity. The filters were counted in a scintillation counter (Betaplate 1205, Berthold, Wildbad, Germany) in order to determine the specific binding of [^3H]-Dofetilide.
The optimal amount of membrane preparation in the assay was determined and optimized for each membrane preparation separately in front of using the membranes in compound testing.
For pipetting of the incubation mixture we routinely use the robot Biomek2000 (Fa. Beckman).
For orientation: The hERG channel carries a current that helps repolarise heart muscle cells.

T1 sequence (Q00960 27-1482, other chains not shown): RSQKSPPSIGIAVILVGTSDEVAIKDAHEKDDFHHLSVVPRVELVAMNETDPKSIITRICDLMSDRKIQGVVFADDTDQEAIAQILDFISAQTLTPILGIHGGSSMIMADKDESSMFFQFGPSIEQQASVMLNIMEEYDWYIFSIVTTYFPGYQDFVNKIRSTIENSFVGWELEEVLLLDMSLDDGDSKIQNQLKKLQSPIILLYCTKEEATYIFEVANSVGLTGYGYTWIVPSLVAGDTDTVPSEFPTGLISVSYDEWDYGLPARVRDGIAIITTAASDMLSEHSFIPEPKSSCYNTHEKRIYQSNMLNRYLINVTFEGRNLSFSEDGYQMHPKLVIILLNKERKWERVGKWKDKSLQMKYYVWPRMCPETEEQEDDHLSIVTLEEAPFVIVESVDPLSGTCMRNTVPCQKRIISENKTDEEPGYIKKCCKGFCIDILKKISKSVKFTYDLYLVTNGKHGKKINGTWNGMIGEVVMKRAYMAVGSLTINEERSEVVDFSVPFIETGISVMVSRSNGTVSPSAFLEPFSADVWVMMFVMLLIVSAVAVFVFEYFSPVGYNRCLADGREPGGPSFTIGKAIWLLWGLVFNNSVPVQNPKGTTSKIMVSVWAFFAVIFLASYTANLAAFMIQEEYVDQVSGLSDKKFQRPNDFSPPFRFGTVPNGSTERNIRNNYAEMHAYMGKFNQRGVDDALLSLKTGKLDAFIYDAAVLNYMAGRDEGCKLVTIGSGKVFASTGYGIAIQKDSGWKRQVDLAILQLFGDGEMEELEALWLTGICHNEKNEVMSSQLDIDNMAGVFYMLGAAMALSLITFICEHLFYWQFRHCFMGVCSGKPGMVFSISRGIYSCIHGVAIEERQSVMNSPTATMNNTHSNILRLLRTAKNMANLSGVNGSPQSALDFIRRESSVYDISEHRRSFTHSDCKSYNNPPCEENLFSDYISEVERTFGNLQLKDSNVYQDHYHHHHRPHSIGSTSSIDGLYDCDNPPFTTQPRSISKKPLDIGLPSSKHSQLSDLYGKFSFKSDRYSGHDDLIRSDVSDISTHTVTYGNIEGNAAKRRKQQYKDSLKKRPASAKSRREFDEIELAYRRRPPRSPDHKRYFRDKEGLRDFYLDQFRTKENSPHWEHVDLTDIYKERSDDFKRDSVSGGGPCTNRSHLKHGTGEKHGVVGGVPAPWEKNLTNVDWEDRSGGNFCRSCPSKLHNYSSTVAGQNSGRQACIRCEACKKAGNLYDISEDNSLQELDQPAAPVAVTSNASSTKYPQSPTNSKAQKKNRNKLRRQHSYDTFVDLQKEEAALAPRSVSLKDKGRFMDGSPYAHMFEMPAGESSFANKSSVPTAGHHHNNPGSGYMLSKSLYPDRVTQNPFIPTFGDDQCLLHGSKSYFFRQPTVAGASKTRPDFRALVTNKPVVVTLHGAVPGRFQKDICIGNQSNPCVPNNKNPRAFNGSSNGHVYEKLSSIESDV
Chain of hERG-receptor (Q12809 whole entry): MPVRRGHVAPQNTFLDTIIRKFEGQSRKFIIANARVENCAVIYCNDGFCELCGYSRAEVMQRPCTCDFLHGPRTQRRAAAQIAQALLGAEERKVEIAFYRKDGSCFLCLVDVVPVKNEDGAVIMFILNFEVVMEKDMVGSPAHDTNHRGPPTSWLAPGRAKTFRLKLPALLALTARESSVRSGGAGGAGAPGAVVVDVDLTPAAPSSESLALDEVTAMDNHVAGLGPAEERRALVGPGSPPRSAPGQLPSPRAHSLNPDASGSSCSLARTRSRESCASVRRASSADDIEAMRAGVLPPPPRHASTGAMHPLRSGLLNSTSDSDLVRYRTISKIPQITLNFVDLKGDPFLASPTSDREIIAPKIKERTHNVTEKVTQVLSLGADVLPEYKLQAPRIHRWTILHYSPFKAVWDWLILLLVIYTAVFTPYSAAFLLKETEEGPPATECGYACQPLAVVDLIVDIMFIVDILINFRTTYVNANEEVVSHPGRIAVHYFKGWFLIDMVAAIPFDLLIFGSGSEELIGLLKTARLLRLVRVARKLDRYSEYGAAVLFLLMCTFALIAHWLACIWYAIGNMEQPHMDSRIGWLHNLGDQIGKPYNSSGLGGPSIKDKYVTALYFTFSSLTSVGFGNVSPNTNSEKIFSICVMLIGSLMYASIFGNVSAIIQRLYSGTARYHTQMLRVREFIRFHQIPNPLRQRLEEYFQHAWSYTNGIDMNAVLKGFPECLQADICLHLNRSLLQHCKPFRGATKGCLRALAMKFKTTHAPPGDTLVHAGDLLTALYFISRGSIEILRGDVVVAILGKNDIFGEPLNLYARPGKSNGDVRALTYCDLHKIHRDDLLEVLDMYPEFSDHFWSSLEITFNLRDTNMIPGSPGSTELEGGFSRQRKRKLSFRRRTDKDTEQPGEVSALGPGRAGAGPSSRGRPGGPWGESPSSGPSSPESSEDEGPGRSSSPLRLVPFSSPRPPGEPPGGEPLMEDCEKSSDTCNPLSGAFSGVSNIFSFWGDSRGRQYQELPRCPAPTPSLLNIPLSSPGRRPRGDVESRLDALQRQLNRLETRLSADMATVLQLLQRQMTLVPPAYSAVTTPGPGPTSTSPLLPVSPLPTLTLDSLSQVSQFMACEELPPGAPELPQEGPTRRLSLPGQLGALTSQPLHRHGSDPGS

For the compound `Clc1ccc(-n2cc(Cn3ccnc3C3CCC3)nn2)cc1Cl` [Example 39, 4-(2-Cyclobutyl-imidazol-1-ylmethyl)-1-(3,4-dichloro-phenyl)-1H-[1,2,3]triazole], the pIC50 at rat NR1/NR2B receptor [1] is 8.12; on rat NR1/NR2B receptor [2] it was 8.12; on hERG-receptor, 5.76.
Regarding `Cc1cc(-n2cc(Cn3ccnc3CCF)nn2)ccc1Cl` [Example 75, 1-(4-Chloro-3-methyl-phenyl)-4-[2-(2-fluoro-ethyl)-imidazol-1-ylmethyl]-1H-[1,2,3]triazole], the pIC50 at rat NR1/NR2B receptor [1] is 7.87; on rat NR1/NR2B receptor [2], 7.87; at hERG-receptor, 4.48.
Take `CCCc1nccn1Cc1cn(-c2ccc(Cl)c(Cl)c2)nn1` [Example 34, 1-(3,4-Dichloro-phenyl)-4-(2-propyl-imidazol-1-ylmethyl)-1H-[1,2,3]triazole]: the values for the pIC50 on rat NR1/NR2B receptor [1], on rat NR1/NR2B receptor [2] and at hERG-receptor were 8.12, 8.12 and 5.95, respectively.
Take `Cc1nccn1Cc1cn(-c2ccc(Cl)c(C(F)(F)F)c2)nn1` [Example 56, 1-(4-Chloro-3-trifluoromethyl-phenyl)-4-(2-methyl-imidazol-1-ylmethyl)-1H-[1,2,3]triazole]: the pIC50 is 7.92 at rat NR1/NR2B receptor [1], 7.92 at rat NR1/NR2B receptor [2] and 5.19 at hERG-receptor.
With `COc1cc(F)ccc1-n1cc(Cn2ccnc2C2CC2)nn1` [Example 62, 4-(2-Cyclopropyl-imidazol-1-ylmethyl)-1-(4-fluoro-2-methoxy-phenyl)-1H-[1,2,3]triazole], the pIC50 was 5.48 at rat NR1/NR2B receptor [1], 5.48 on rat NR1/NR2B receptor [2] and 4.34 at hERG-receptor.
Turning to `CC(C)(C)c1nccn1Cc1cn(-c2ccc(Cl)c(OC(F)F)c2)nn1` [Example 95, 4-(2-tert-Butyl-imidazol-1-ylmethyl)-1-(4-chloro-3-difluoromethoxy-phenyl)-1H-[1,2,3]triazole], the pIC50 was 7.14 at rat NR1/NR2B receptor [1], 7.14 on rat NR1/NR2B receptor [2] and 5.23 at hERG-receptor.
Take `CC(C)(C)c1nccn1Cc1cn(-c2ccc(Cl)c(Cl)c2)nn1` [Example 38, 4-(2-tert-Butyl-imidazol-1-ylmethyl)-1-(3,4-dichloro-phenyl)-1H-[1,2,3]triazole]: the pIC50 was 6.28 on rat NR1/NR2B receptor [1], 6.28 at rat NR1/NR2B receptor [2] and 5.25 at hERG-receptor.
In the case of `Cc1cc(-n2cc(Cn3ccnc3C)nn2)ccc1Cl` [Example 55, 1-(4-Chloro-3-methyl-phenyl)-4-(2-methyl-imidazol-1-ylmethyl)-1H-[1,2,3]triazole], the pIC50 was 8.79 at rat NR1/NR2B receptor [1], 8.79 at rat NR1/NR2B receptor [2] and 5.33 at hERG-receptor.
Turning to `Cc1nccn1Cc1cn(-c2ccc(Cl)c(Cl)c2)nn1` [Example 32, 1-(3,4-Dichloro-phenyl)-4-(2-methyl-imidazol-1-ylmethyl)-1H-[1,2,3]triazole], the pIC50 was 8.31 on rat NR1/NR2B receptor [1], 8.31 on rat NR1/NR2B receptor [2] and 5.41 at hERG-receptor.
Consider `Clc1ccc(-n2cc(Cn3ncnc3C3CCCC3)nn2)cc1` [Example 14, 1-(4-Chloro-phenyl)-4-(5-cyclopentyl-[1,2,4]triazol-1-ylmethyl)-1H-[1,2,3]triazole], for which the pIC50 on rat NR1/NR2B receptor [1] was 4.90; on rat NR1/NR2B receptor [2], 4.90; at hERG-receptor, 4.52.
Regarding `CCc1nccn1Cc1cn(-c2ccc(Cl)c(OC(F)F)c2)nn1` [Example 96, 1-(4-Chloro-3-difluoromethoxy-phenyl)-4-(2-ethyl-imidazol-1-ylmethyl)-1H-[1,2,3]triazole], the figures for the pIC50 on rat NR1/NR2B receptor [1], at rat NR1/NR2B receptor [2] and on hERG-receptor were 8.80, 8.80 and 5.36, respectively.
As to `CC(C)c1nccn1Cc1cn(-c2ccc(Cl)c(Cl)c2)nn1` [Example 35, 1-(3,4-Dichloro-phenyl)-4-(2-isopropyl-imidazol-1-ylmethyl)-1H-[1,2,3]triazole], the pIC50 is 8.13 at rat NR1/NR2B receptor [1], 8.13 at rat NR1/NR2B receptor [2] and 5.23 on hERG-receptor.
In the case of `FC(F)c1cc(-n2cc(Cn3ccnc3C3CC3)nn2)ccc1Cl` [Example 90, 1-(4-Chloro-3-difluoromethyl-phenyl)-4-(2-cyclopropyl-imidazol-1-ylmethyl)-1H-[1,2,3]triazole], the pIC50 at rat NR1/NR2B receptor [1] was 7.81; at rat NR1/NR2B receptor [2], 7.81; on hERG-receptor, 5.27.
`Cc1nccn1Cc1cn(-c2cccc(C3CC3)c2)nn1` [Example 76, 1-(3-Cyclopropyl-phenyl)-4-(2-methyl-imidazol-1-ylmethyl)-1H-[1,2,3]triazole]: the pIC50 is 7.80 at rat NR1/NR2B receptor [1], 7.80 on rat NR1/NR2B receptor [2] and 4.99 on hERG-receptor.
For `CCCCc1nccn1Cc1cn(-c2ccc(Cl)c(Cl)c2)nn1` [Example 37, 4-(2-Butyl-imidazol-1-ylmethyl)-1-(3,4-dichloro-phenyl)-1H-[1,2,3]triazole], the pIC50 is 8.16 on rat NR1/NR2B receptor [1], 8.16 at rat NR1/NR2B receptor [2] and 6.23 at hERG-receptor.
As to `Cc1cc(-n2cc(Cn3ccnc3CCO)nn2)ccc1Cl` [Example 74, 1-(4-Chloro-3-methyl-phenyl)-4-[2-(2-hydroxy-ethyl)-imidazol-1-ylmethyl]-1H-[1,2,3]triazole], the pIC50 is 8.16 at rat NR1/NR2B receptor [1], 8.16 at rat NR1/NR2B receptor [2] and 4.47 on hERG-receptor.
On to `FC(F)(F)c1cc(-n2cc(Cn3ccnc3C3CC3)nn2)ccc1Cl` [Example 66, 1-(4-Chloro-3-trifluoromethyl-phenyl)-4-(2-cyclopropyl-imidazol-1-ylmethyl)-1H-[1,2,3]triazole], for which the pIC50 was 7.42 at rat NR1/NR2B receptor [1], 7.42 at rat NR1/NR2B receptor [2] and 5.45 at hERG-receptor.
